Patent EP0066918A1 (THE PROCTER & GAMBLE COMPANY, priority 1981, dated 1982)
“And” between values parts separate entries of the source, which are not always exact repeats. Equal values may be shown once.

Experiments:
[1] = test system: aspirin-induced gastric lesions; experiment: animal or person; format: in vivo, Male Sprague-Dawley rats; conditions: for inhibition in vivo at 125 mg/kg: Rattus norvegicus, po, 2 h, purine derivative dose 125 mg/kg with 125 mg/kg aspirin, read-out: % Reduction in Lesions; for reduction in lesions / lesion reduction: both 125 mg/kg; for minimization of gastric damage (statement in words): general statement in the description, high dosage = anti-inflammatory:purine ratios from about 1:1.5 to about 1:4
Method: For these experiments, the test materials were suspended in 0.5% methyl cellulose aqueous solutions. The pH of the aspirin solution was 2.7 and the pH of the solutions containing the purine materials was adjusted to pH 2.7 using HC1.
Male Sprague-Dawley rats were obtained (approximate weight = 150 grams each) and allowed to acclimate for at least 4 days. During this period the animals were allowed Purina Rat Chow and,tap water ad libitum. The animals were food fasted about 18 hours prior to dosing; during this period water was provided ad libitum.
The rats were dosed by oral gavage using a #8 catheter attached to a 1 cc syringe. The animals were dosed and sacrificed according to a predetermined schedule (the dosing order was determined at random prior to starting each experiment). After dosing, the animals were also water fasted.
The rats were sacrificed, either by C02 inhalation or cervical dislocation, two hours after dosing. Their stomachs were removed intact and placed on plastic-backed absorbent paper. The stomachs were then opened along the greater curvature, the fundus and esophagus were removed and the stomach was spread over a piece of white cardboard, using cotton-tipped applicators to level the rugae. The stomachs were then examined, using a dissecting microscope at 7X magnification, and the length of each lesion present was determined using a calibrated reticule.
In this table, N indicates the number of rats tested for the stated dosage.
In other experiments aspirin and adenosine were dosed at separate times.

[2] = Toxicity (statement only, no method given); conditions: no data given
[3] = test system: aspirin-induced gastric damage; experiment: Aspirin-induced gastric lesions in rats, adenosine injected i.p. 15 minutes prior to oral aspirin; format: in vivo; conditions: 125 mg/kg aspirin (p.o.) alone
Method: Parenteral administration of adenosine was also found to be protective against aspirin-induced gastric damage, as illustrated by the following experiment.
Rats, chosen and prepared as. above, were dosed with i.p. injections of adenosine in 0.9% sterile physiological saline solution, adjusted to pH 7 with IN NaOH. The adenosine solution was injected 15 minutes prior to an oral dose of 125 mg/kg aspirin.

[4] = test system: occult blood loss from the G.I. tract; experiment: Occult blood loss from the G.I. tract of rats (Fe labeled ferrous citrate, 24 h feces collection); format: in vivo, male Sprague-Dawley rats; conditions: Adenosine 0, oral
Method: In addition to reducing macroscopic lesions in the stomach produced by aspirin ingestion, adenosine was also found to reduce occult blood loss from the G.I. tract of rats. In these experiments, male Sprague-Dawley rats were injected i.v. with […] Fe labeled ferrous citrate. Eight days after injection, feces were collected for 24 hours to establish base line data. The rats were then dosed orally with aspirin or aspirin-adenosine mixtures, as suspensions in 0.5% methylcellulose, and the feces were again collected for 24 hours. The rats were fasted during the 24-hour pre- dose period and for 2 hours after drug dosing.

[5] = test system: Aspirin-induced damage in dogs; experiment: Aspirin-induced gastric damage in dogs, endoscopy; format: in vivo, male beagles; conditions: avg. dose aspirin 97.8-101 mg/kg, adenosine 100 mg/kg simultaneously, cimetidine 30 mg/kg about 1 hour before
Method: Fasted male beagles were orally dosed with tablets of aspirin, aspirin plus adenosine, or aspirin plus cimetidine. The aspirin and adenosine were dosed simultaneously. The cimetidine was dosed approximately 1 hour before the aspirin; the dose level of cimetidine was 5 times that needed to give a 90% reduction in acid secretion. Approximately 19 hours later, the dogs were again dosed and 4 hours later their stomachs were examined by endoscopy. The incidence of erosions was recorded and the overall gastric damage assessed subjectively, using an arbitrary grading scale.

Structure (SMILES) | inhibition in vivo at 125 mg/kg ([1]; vs aspirin-alone control) [%] | minimization of gastric damage (statement in words) [1] | other results
CSC[C@H]1O[C@@H](n2cnc3c(N)ncnc32)[C@H](O)[C@@H]1O [5'-deoxy-5'-methylthioadenosine] | -102 | – | –
Nc1ncnc2c1ncn2[C@@H]1O[C@H](CO)[C@@H](O)[C@H]1O [adenosine] | – | – | reduction in lesions ([1]; adenosine dosed 10 minutes after aspirin): < 10%; lesion reduction ([1]; adenosine dosed 10 minutes prior to aspirin): about 60%; lesion reduction ([1]; adenosine dosed 30 minutes prior to aspirin): about 45%; reduction in lesions ([1]; adenosine dosed simultaneously with aspirin): about 90%
Nc1ncnc2nc[nH]c12 [Adenine] | 94 | does work to minimize gastrointestinal damage | toxicity limits (statement in words) [2]: does not fall within the necessary toxicity limits
O=c1[nH]cnc2nc[nH]c12 [Hypoxanthine] | 13 | – | –
Nc1ncnc2c1nnn2[C@@H]1O[C@H](CO)[C@@H](O)[C@H]1O [8-azaadenosine] | 60 | – | –
Nc1ncnc2c1ncn2[C@@H]1O[C@H](COP(=O)(O)OP(=O)(O)OP(=O)(O)O)[C@@H](O)[C@H]1O [Adenosine-5'-triphosphonate (ATP), adenosine-5'-triphosphate] | – | work only at relatively high dosage levels | –
CC1(C)O[C@@H]2[C@H](O1)[C@@H](CO)O[C@H]2n1cnc2c(N)ncnc21 [2',3'-isopropylidine adenosine] | 95 | – | –
Nc1c2ncn([C@@H]3O[C@H](CO)[C@@H](O)[C@H]3O)c2nc[n+]1[O-] [Adenosine-N^1-oxide, adenosine-N^1-oxide] | 75 | – | –
Nc1ncnc2c1nc(Br)n2[C@@H]1O[C@H](CO)[C@@H](O)[C@H]1O [8-bromoadenosine] | 76 | – | –
Nc1ncnc2c1ncn2[C@H]1C[C@H](O)[C@@H](CO)O1 [2'-deoxyadenosine] | 64 | – | –
Cn1cnc2c(ncn2[C@@H]2O[C@H](CO)[C@@H](O)[C@H]2O)c1=N [1-methyl adenosine] | – | – | % Reduction in Lesions ([1]; purine derivative dose 25 mg/kg with 125 mg/kg aspirin, vs aspirin-alone control): 16%
Nc1ncnc2c1ncn2[C@H]1C[C@H](O)[C@@H](COP(=O)(O)O)O1 [2'-deoxy-adenosine-5'-mono-phosphate] | 16 | – | –
Nc1nc2c(ncn2[C@@H]2O[C@H](CO)[C@@H](O)[C@H]2O)c(=O)[nH]1 [Guanosine] | 41 | not useful | –
Nc1ncnc2c1ncn2[C@@H]1O[C@H](CO)C[C@H]1O [3'-deoxyadenosine] | -47 | – | –
OC[C@H]1O[C@@H](n2cnc3c(O)ncnc32)[C@H](O)[C@@H]1O [Inosine] | 18 | – | –
NC(=O)NC1NC(=O)NC1=O (stereo not drawn) [Allantoin] | 30 | – | –
CC(=O)Oc1ccccc1C(=O)O [Aspirin, acetylsalicylic acid] | – | – | Lesion Length (mm) ± SEM ([1]; 125 mg/kg aspirin alone (control), oral, 2 h after dosing): 30.4 ±3.1 mm; Average Lesion Length (mm) ±SEM [3]: 36.1 ±10.8 mm; Blood Loss in 24 hrs. (µl) + S.D. ([4]; Aspirin 125 mg/kg): 158 ± 46 µL; Blood Loss in 24 hrs. (µl) + S.D. ([4]; Aspirin 300 mg/kg): 198 ± 131 µL and 224 ± 98 µL; Avg. Damage Grade ([5]; arbitrary subjective grading scale): 16; Avg. In-cidence of Erosions ([5]; oral tablets, two doses about 19 h apart, endoscopy 4 h after second): 80%
Nc1ncnc2c1ncn2[C@@H]1O[C@H](COP(=O)(O)OP(=O)(O)O)[C@@H](O)[C@H]1O [Adenosine-5'-diphosphate (ADP), adenosine-5'-diphosphate] | 50 | work only at relatively high dosage levels | –
OC[C@H]1O[C@@H](n2cnc3c2ncn2ccnc32)[C@H](O)[C@@H]1O [1,N^6-ethenoadenosine] | 50 | work only at relatively high dosage levels | –
Nc1nc2nc[nH]c2c(=O)[nH]1 [guanine] | – | not useful | –
